Data reported in ChEMBL document CHEMBL1145218, “QSAR study on pK(a) vis-à-vis physiological activity of sulfonamides: a dominating role of surface tension (inverse steric parameter)” (Bioorg Med Chem Lett, 2005).

Assay: pKa value
Type: physicochemical

| Compound | pKa |
| --- | --- |
| Cc1ccc(NS(=O)(=O)c2ccc(Cl)cc2)cc1 | 8.78 |
| O=S(=O)(Nc1ccc(Cl)cc1)c1ccccc1 | 8.75 |
| Nc1ccc(NS(=O)(=O)c2ccccc2)cc1 | 10.3 |
| Cc1ccc(S(=O)(=O)Nc2ccc(Cl)cc2)cc1 | 9.02 |
| Cc1ccc(NS(=O)(=O)c2ccc(C)cc2)cc1 | 9.65 |
| Cc1ccc(NS(=O)(=O)c2ccc(F)cc2)cc1 | 9.23 |
| Cc1ccc(S(=O)(=O)Nc2ccc(F)cc2)cc1 | 9.2 |
| COc1ccc(S(=O)(=O)Nc2ccc(Cl)cc2)cc1 | 9.19 |
| O=S(=O)(Nc1ccc(Cl)cc1)c1ccc(Cl)cc1 | 8.3 |
| O=S(=O)(Nc1ccc(F)cc1)c1ccc(F)cc1 | 8.73 |
| COc1ccc(S(=O)(=O)Nc2ccc(C)cc2)cc1 | 9.8 |
| O=S(=O)(Nc1ccc(Cl)cc1)c1ccc(F)cc1 | 8.61 |
| Nc1ccc(NS(=O)(=O)c2ccc(Cl)cc2)cc1 | 9.76 |
| Cc1ccc(NS(=O)(=O)c2ccccc2)cc1 | 9.34 |
| COc1ccc(S(=O)(=O)Nc2ccc(F)cc2)cc1 | 9.32 |
| O=S(=O)(Nc1ccc(F)cc1)c1ccccc1 | 8.85 |
| O=S(=O)(Nc1ccccc1)c1ccccc1 [PHENYL(PHENYLSULFONYL)AMINE] | 9.1 |

The remaining lines, values ahead:

| pKa | Compound |
| --- | --- |
| 8.5 | O=S(=O)(Nc1ccccc1)c1ccc(Br)cc1 |
| 8.25 | O=S(=O)(Nc1ccccc1)c1cccc(Br)c1 |
| 8.38 | O=S(=O)(Nc1ccc(F)cc1)c1ccc(Br)cc1 |
| 8.47 | O=S(=O)(Nc1ccccc1)c1ccc(Cl)cc1 |
| 7.8 | Cc1ccc(NS(=O)(=O)c2cccc([N+](=O)[O-])c2)cc1 |
| 8.9 | O=S(=O)(Nc1ccccc1)c1ccc(F)cc1 |
| 8.44 | COc1ccc(S(=O)(=O)Nc2cccc([N+](=O)[O-])c2)cc1 |
| 8.27 | Cc1ccc(S(=O)(=O)Nc2cccc([N+](=O)[O-])c2)cc1 |
| 9.42 | COc1ccc(S(=O)(=O)Nc2ccccc2)cc1 |
| 9.35 | Cc1ccc(S(=O)(=O)Nc2ccccc2)cc1 |
| 7.51 | O=[N+]([O-])c1cccc(NS(=O)(=O)c2ccc(Cl)cc2)c1 |
| 7.85 | O=[N+]([O-])c1cccc(NS(=O)(=O)c2ccc(F)cc2)c1 |
| 6.24 | O=[N+]([O-])c1ccc(S(=O)(=O)Nc2ccc(Cl)cc2)cc1 |
| 7.27 | O=[N+]([O-])c1cccc(S(=O)(=O)Nc2ccc(F)cc2)c1 |
| 8.41 | O=S(=O)(Nc1ccc(F)cc1)c1ccc(Cl)cc1 |
| 6.45 | O=[N+]([O-])c1ccc(S(=O)(=O)Nc2ccc(F)cc2)cc1 |
| 6.78 | Cc1ccc(NS(=O)(=O)c2ccc([N+](=O)[O-])cc2)cc1 |
| 7.5 | O=[N+]([O-])c1cccc(S(=O)(=O)Nc2ccccc2)c1 |
| 8.24 | O=S(=O)(Nc1ccc(Cl)cc1)c1ccc(Br)cc1 |
| 5.51 | O=[N+]([O-])c1ccc(S(=O)(=O)Nc2cccc([N+](=O)[O-])c2)cc1 |
| 10.4 | Cc1cccc(S(=O)(=O)Nc2ccc(N)cc2)c1 |
| 10.5 | Cc1ccc(S(=O)(=O)Nc2ccc(N)cc2)cc1 |
| 7.42 | O=[N+]([O-])c1cccc(NS(=O)(=O)c2ccc(Br)cc2)c1 |
| 7.19 | O=[N+]([O-])c1cccc(S(=O)(=O)Nc2ccc(Cl)cc2)c1 |
| 7.93 | O=[N+]([O-])c1cccc(NS(=O)(=O)c2ccccc2)c1 |
